This assay concerns the target T1, human GPR40 (Homo sapiens, UniProt O14842).
T1 construct: expressed in transfected cells; host or cells: CHO cell line stably expressing human GPR40
In words: Determination of EC50 against human GPR40: change in intracellular calcium concentration by FLIPR in CHO cells stably expressing human GPR40. The following applies: CHO cell line stably expressing human GPR40; intracellular calcium change measured by FLIPR (Fluo3-AM); EC50 from dose-response curve; read-out: EC50 (receptor function modulating action on GPR40). In kind it is cell-based. As to the method:
Determination of EC50 of the compound of the present invention against human GPR40
For determination of EC50, CHO cell line that stably expressed human GPR40 was used. Unless otherwise indicated, the CHO cell line was cultured using α-MEM medium (Invitrogen) containing 10% fetal bovine serum (Invitrogen).
The cells cultured to nearly confluent were rinsed with PBS (Invitrogen) on the previous day of the assay, peeled off with 0.05% Trypsin.EDTA solution (Invitrogen) and recovered by centrifugation. The number of the obtained cells was counted, and the cells were diluted such that 3×10^5 cells were contained per 1 mL of the medium, dispensed to a black welled 96-well plate (coster) by 100 μL per well and cultured overnight in a CO2 incubator. Various test compounds were added to the CHO cells thus prepared, and the changes in the intracellular calcium concentration were measured using FLIPR (Molecular Device). The below-mentioned pre-treatment was applied to measure changes in the intracellular calcium concentration by FLIPR.
First, an assay buffer for adding a fluorescence dye Fluo3-AM (DOJIN) to the cells, or for washing the cells immediately before FLIPR assay was prepared. To a solution of HBSS (Invitrogen, 1000 mL) added 1 M HEPES (pH 7.4, DOJIN, 20 mL) (hereinafter HBSS/HEPES solution) was added a solution (10 mL) obtained by dissolving probenecid (Sigma, 710 mg) in 1 N NaOH (5 mL), and adding and mixing an HBSS/HEPES solution (5 mL), and the resulting solution was used as an assay buffer. Next, Fluo3-AM (50 μg) was dissolved in dimethyl sulfoxide (Wako, 21 μL), and an equivalent amount of 20% pluronic acid (Molecular Probes) was added and mixed. The solution was added to the assay buffer (10.6 mL) supplemented with fetal bovine serum (105 μL) to give a fluorescence dye solution. The medium of the CHO cells inoculated to the black welled 96-well plate on the previous day of assay was removed, the fluorescence dye solution was immediately dispensed by 100 μL per well and the cells were cultured in a CO2 incubator for 1 hr to allow intake of the fluorescence dye by the cells. The cells after the culture were washed with the above-mentioned assay buffer and set on FLIPR. The test compound was diluted with dimethylsulfoxide in advance, dispensed to a polypropylene 96-well plate (sample plate) by 2 μL, and cryopreserved at −20° C. To the thawed sample plate was added an assay buffer containing 0.015% CHAPS (DOJIN) by 198 μL, and simultaneously set on FLIPR together with the cell plate. After the aforementioned pre-treatment, changes in the intracellular calcium concentration upon addition of various test compounds was measured by FLIPR. Based on the results, a dose-response curve of each test compound was formed and EC50 was calculated.
Background: A change in cytosolic calcium serves as a functional read-out for many receptors and channels.

Where a name gives a salt, the structure may show the parent alone. Some results are limits rather than exact numbers.

Broadly, the EC50 is the concentration needed to bring the measured effect to its halfway point.

T1 sequence (O14842 whole entry): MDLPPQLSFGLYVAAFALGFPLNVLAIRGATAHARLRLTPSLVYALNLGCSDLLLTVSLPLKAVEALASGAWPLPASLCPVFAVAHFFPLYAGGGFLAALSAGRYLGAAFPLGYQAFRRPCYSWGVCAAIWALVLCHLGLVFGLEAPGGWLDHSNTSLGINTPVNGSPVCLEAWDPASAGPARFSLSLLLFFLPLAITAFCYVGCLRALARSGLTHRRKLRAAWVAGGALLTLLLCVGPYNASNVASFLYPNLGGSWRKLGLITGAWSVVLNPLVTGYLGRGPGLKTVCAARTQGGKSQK

Turning to `Cc1cccc(COc2cc(C(C)(C)C)nn2Cc2ccc(COc3ccc(CCC(=O)O)c(F)c3)cc2)n1` [Example 137, 3-(4-{[4-({3-tert-butyl-5-[(6-methylpyridin-2-yl)methoxy]-1H-pyrazol-1-yl}methyl)benzyl]oxy}-2-fluorophenyl)propanoic acid calcium salt], the EC50 was under 100 nM.
`CC(C)(C)c1cc(OCc2ccccc2)n(Cc2ccc(COc3ccc(CCC(=O)O)c(F)c3)cc2)n1` [Example 133, 3-{4-[(4-([5-(benzyloxy)-3-tert-butyl-1H-pyrazol-1-yl]methyl)benzyl)oxy]-2-fluorophenyl}propanoic acid calcium salt]: the EC50 is under 100 nM.
To `O=C(O)CCc1ccc(OCc2ccc(Cn3c(-c4ccccc4)cc4ccccc43)cc2)cc1` [Example 45, 3-[4-({4-[(2-phenyl-1H-indol-1-yl)methyl]benzyl}oxy)phenyl]propanoic acid] belongs under 100 nM; to `CC(C)COc1ccc(COc2ccc(CCC(=O)O)cc2)cc1CN1c2ccccc2CCC1C` (centres unmarked) [Example 111, 3-[4-({4-isobutoxy-3-[(2-methyl-3,4-dihydroquinolin-1 (2H)-yl)methyl]benzyl}oxy)phenyl]propanoic acid], under 1000 nM; to `CC(C)COc1ccc(COc2ccc(CCC(=O)O)cc2)cc1Cn1c(-c2ccccc2)cc2ccccc21` [Example 60, 3-[4-({4-isobutoxy-3-[(2-phenyl-1H-indol-1-yl)methyl]benzyl)oxy)phenyl]propanoic acid], under 100 nM.
As to `CC(C)(C)c1cc(COc2ccccc2)n(Cc2ccc(COc3ccc(CCC(=O)O)c(F)c3)cc2)n1` [Example 131, 3-{4-[(4-{[3-tert-butyl-5-(phenoxymethyl)-1H-pyrazol-1-yl]methyl}benzyl)oxy]-2-fluorophenyl}propanoic acid calcium salt], the EC50 is under 100 nM.
Regarding `Cc1cc(-c2ccccc2)n(Cc2ccc(COc3ccc(CCC(=O)O)cc3)cc2)n1` [Example 112, 3-[4-([4-[(3-methyl-5-phenyl-1H-pyrazol-1-yl)methyl]benzyl}oxy)phenyl]propanoic acid], the EC50 was under 100 nM.
To `CCOCCn1c(-c2ccccc2)c(-c2cccc(COc3ccc(CCC(=O)O)c(F)c3)c2)c2ccccc21` [Example 118, 3-[4-({3-[1-(2-ethoxyethyl)-2-phenyl-1H-indol-3-yl]benzyl}oxy)-2-fluorophenyl]propanoic acid] belongs under 100 nM.
Take `CC1CCc2ccccc2N1c1cccc(COc2ccc(CCC(=O)O)cc2)c1` (centres unmarked) [Example 40, 3-(4-{[3-(2-methyl-3,4-dihydroquinolin-1 (2H)-yl)benzyl]oxy}phenyl)propanoic acid]: the EC50 was under 10 nM.
As for `O=C(O)CCc1ccc(OCc2ccccc2-c2csc3ccccc23)cc1` [Example 10, 3-(4-{[2-(1-benzothiophen-3-yl)benzyl]oxy}phenyl)propanoic acid], the figure is under 1000 nM; as for `O=C(O)CCc1ccc(OCc2ccc(Cn3ccnc3-c3ccccc3)cc2)cc1` [Example 56, 3-[4-([4-[(2-phenyl-1H-imidazol-1-yl)methyl]benzyl]oxy)phenyl]propanoic acid], under 1000 nM; as for `O=C(O)CCc1ccc(OCc2cccc(N3CCOC(c4ccccc4)C3)c2)cc1` (centres unmarked) [Example 29, 3-(4-{[3-(2-phenylmorpholin-4-yl)benzyl]oxy}phenyl)propanoic acid], under 100 nM.
For the molecule `Cc1sc(C)c(-c2cccc(COc3ccc(CCC(=O)O)cc3)c2)c1C` [Example 4, 3-(4-([3-(2,4,5-trimethyl-3-thienyl)benzyl]oxy}phenyl)propanoic acid], the EC50 was under 10 nM.
For `O=C(O)CCc1ccc(OCc2ccc(Cn3nc(-c4ccc(C(F)(F)F)cc4)cc3CCc3ccccc3)cc2)cc1` [Example 65, 3-(4-{[4-({5-(2-phenylethyl)-3-[4-(trifluoromethyl)phenyl]-1H-pyrazol-1-yl}methyl)benzyl]oxy}phenyl)propanoic acid], the EC50 is under 1000 nM.
To `CC(C)(C)c1cc(-c2ccccc2)n(Cc2ccc(COc3ccc(CCC(=O)O)c(F)c3)cc2)n1` [Example 141, 3-[4-({4-[(3-tert-butyl-5-phenyl-1H-pyrazol-1-yl)methyl]benzyl)oxy)-2-fluorophenyl]propanoic acid] belongs under 100 nM; to `O=C(O)CCc1ccc(OCc2cccc(-c3ccc4c(ccn4Cc4ccccc4)c3)c2)cc1` [Example 20, 3-(4-([3-(1-benzyl-1H-indol-5-yl)benzyl]oxy}phenyl)propanoic acid], under 100 nM.
Consider `Cc1cc2ccccc2n1-c1cccc(COc2ccc(CCC(=O)O)cc2)c1` [Example 24, 3-(4-{[3-(2-methyl-1H-indol-1-yl)benzyl]oxy}phenyl)propanoic acid], for which the EC50 is under 10 nM.
